From patent US10072252B2 (priority 2013, dated 2018)
Values joined by “and” are separate entries in the source; they are usually repeats but may differ in a detail not shown here. Equal entries are not always repeated. Where two headings read alike, the source gives them in different places.

Key:
[1] = target: T1, Sulfolobus solfataricus SsoPox variant W263M, SEQ ID NO: 9 (Saccharolobus solfataricus, UniProt Q97VT7, W263M); type: biochemical
T1 construct: made in house; host or cells: E. coli BL21(DE3)-pGro7/GroEL

[2] = target: T2, Sulfolobus solfataricus SsoPox variant W263L, SEQ ID NO: 11 (Saccharolobus solfataricus, UniProt Q97VT7, W263L); type: biochemical
T2 construct: made in house; host or cells: E. coli BL21(DE3)-pGro7/GroEL

[3] = target: T3, Sulfolobus solfataricus SsoPox, wild type (wt), SEQ ID NO: 3 (Saccharolobus solfataricus, UniProt Q97VT7)
[4] = target: T4, Sulfolobus solfataricus SsoPox variant W263F (of SEQ ID NO: 3) (Saccharolobus solfataricus, UniProt Q97VT7, W263F)
[5] = target: T5, Sulfolobus solfataricus SsoPox variant W263I, SEQ ID NO: 15 (Saccharolobus solfataricus, UniProt Q97VT7, W263I)
[6] = target: T6, Sulfolobus solfataricus SsoPox variant W263V, SEQ ID NO: 17 (Saccharolobus solfataricus, UniProt Q97VT7, W263V)
[7] = target: T7, Sulfolobus solfataricus SsoPox variant W263T, SEQ ID NO: 19 (Saccharolobus solfataricus, UniProt Q97VT7, W263T)
[8] = target: T8, Sulfolobus solfataricus SsoPox variant W263A, SEQ ID NO: 13 (Saccharolobus solfataricus, UniProt Q97VT7, W263A)
[9] = target: T1, Sulfolobus solfataricus SsoPox variant W263M, SEQ ID NO: 9; type: biochemical; remark: listed apart in the source
[10] = target: T2, Sulfolobus solfataricus SsoPox variant W263L, SEQ ID NO: 11; type: biochemical; remark: listed apart in the source
[11] = target: T9, Sulfolobus solfataricus SsoPox variant αsA1 (C258L/I261F/W263A), SEQ ID NO: 21 (Saccharolobus solfataricus, UniProt Q97VT7, C258L/I261F/W263A); type: biochemical; settings: pH 8
T9 construct: made in house; host or cells: E. coli BL21(DE3)-pGro7/GroEL
T9 sequence (Q97VT7 1-314 C258L/I261F/W263A): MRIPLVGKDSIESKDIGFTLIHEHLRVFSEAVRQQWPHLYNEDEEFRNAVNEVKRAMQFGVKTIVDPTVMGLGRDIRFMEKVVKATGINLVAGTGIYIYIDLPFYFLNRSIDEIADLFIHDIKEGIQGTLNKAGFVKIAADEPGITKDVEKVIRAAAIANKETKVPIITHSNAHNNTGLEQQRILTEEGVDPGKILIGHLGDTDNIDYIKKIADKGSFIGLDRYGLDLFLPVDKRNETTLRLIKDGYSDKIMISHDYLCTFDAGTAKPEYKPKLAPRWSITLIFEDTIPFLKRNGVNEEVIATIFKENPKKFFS

[12] = target: T3, Sulfolobus solfataricus SsoPox, wild type (wt), SEQ ID NO: 3; type: biochemical; design: made in house; host or cells: E. coli BL21(DE3)-pGro7/GroEL
[13] = target: T4, Sulfolobus solfataricus SsoPox variant W263F (of SEQ ID NO: 3); type: biochemical; design: made in house; host or cells: E. coli BL21(DE3)-pGro7/GroEL
[14] = target: T5, Sulfolobus solfataricus SsoPox variant W263I, SEQ ID NO: 15; type: biochemical; design: made in house; host or cells: E. coli BL21(DE3)-pGro7/GroEL
[15] = target: T6, Sulfolobus solfataricus SsoPox variant W263V, SEQ ID NO: 17; type: biochemical; design: made in house; host or cells: E. coli BL21(DE3)-pGro7/GroEL
[16] = target: T7, Sulfolobus solfataricus SsoPox variant W263T, SEQ ID NO: 19; type: biochemical; design: made in house; host or cells: E. coli BL21(DE3)-pGro7/GroEL
[17] = target: T8, Sulfolobus solfataricus SsoPox variant W263A, SEQ ID NO: 13; type: biochemical; design: made in house; host or cells: E. coli BL21(DE3)-pGro7/GroEL
[18] = target: T3, Sulfolobus solfataricus SsoPox, wild type (wt), SEQ ID NO: 3; design: made in house; host or cells: E. coli BL21(DE3)-pGro7/GroEL; settings: cited from earlier work
3-oxo-C12 AHL = type: cell-based, Pseudomonas aeruginosa
[19] = type: physicochemical; settings: pH 8
lasB transcription = type: cell-based, P. aeruginosa
[20] = system: P. aeruginosa PAO1 biofilm formation; type: cell-based
P. aeruginosa PAO1 = settings: in vivo
[21] = rat, in vivo
[22] = system: sea urchins larvae (Paracentrotus lividus); settings: in vivo

## CCCCCCCCCC(=O)CC(=O)N[C@H]1CCOC1=O [3-oxo-C12 AHL]
[1]
  Enhancement/wt: 0
  ability to hydrolyse: lost the ability to hydrolyse
[2]
  Enhancement/wt: 0
  ability to hydrolyse: lost the ability to hydrolyse
[3]
  Enhancement/wt: 1
  kcat/KM: 2.96(±0.99)×10^3 M^−1s^−1
[4]
  Enhancement/wt: 1.5 and 1.3 ± 0.5
[4]; pH 8.3
  kcat: 0.41 ± 0.02 s⁻¹
  kcat/KM: 2.81(±0.65) × 10^3 M^−1s^−1
[5]
  Enhancement/wt: 54.7 and 45.5 ± 18.8
[5]; pH 8.3
  kcat: 1.80 ± 0.05 s⁻¹
[6]
  Enhancement/wt: 65.8 and 54.5 ± 20.4
[6]; pH 8.3
  kcat: 3.00 ± 0.07 s⁻¹
  kcat/KM: 1.21(±0.26) × 10^5 M^−1s^−1
[7]
  Enhancement/wt: 25.6 and 21.2 ± 7.2
[7]; pH 8.3
  kcat: 6.44 ± 0.22 s⁻¹
  kcat/KM: 4.70(±0.67) × 10^4 M^−1s^−1
[8]
  Enhancement/wt: 0.42
  ability to hydrolyse: lost the ability to hydrolyse

## CCOP(=O)(OCC)Oc1ccc([N+](=O)[O-])cc1 [Paraoxon, paraoxon]
[9]
  Enhancement/wt: 14.1
[9]; pH 8
  Km: 931 ± 163 µM
  kcat: 6.82 ± 0.57 s⁻¹
  kcat/KM: 7.33(±1.9) × 10^3 M^−1s^−1
[10]
  Enhancement/wt: 4.6
  catalytic efficiency improvement induced by SDS: 19.8 times
  kcat: 3.17 ± 0.18 s⁻¹ and 3.13 ± 0.25 s⁻¹
[10]; pH 8
  kcat/KM: 2.37(±0.33) × 10^3 M^−1s^−1
[11]
  Catalytic activity: 3.37(±0.94) · 10^4 M^−1s^−1
[12]
  Enhancement/wt: 1
  catalytic efficiency improvement induced by SDS: 12.4 times
[13]
  Enhancement/wt: 23.3
[13]; pH 8
  Km: 700 ± 146 µM
  kcat: 8.47 ± 0.53 s⁻¹
  kcat/KM: 1.21(±0.33)×10^4 M^−1s^−1
[14]
  Enhancement/wt: 2.3
[14]; pH 8
  kcat/KM: 1.21(±0.59) × 10^3 M^−1s^−1
[15]
  Enhancement/wt: 1.7
[15]; pH 8
  kcat/KM: 8.83(±0.3) × 10^2 M^−1s^−1
[16]
  Enhancement/wt: 2.0
[16]; pH 8
  kcat/KM: 1.06(±0.03) × 10^3 M^−1s^−1
[17]
  Enhancement/wt: 6.8
[17]; pH 8
  Km: 1490 ± 351 µM
  kcat: 5.29 ± 0.69 s⁻¹
  kcat/KM: 3.55(±1.30)×10^3 M^−1s^−1
[18]
  kcat/KM: 6.41(±1.51)×10^3 M^−1s^−1
[18]; pH 8
  Catalytic activity: 5.19(±1.31) · 10^2 M^−1s^−1
  Km: 24300 ± 3720 µM
  kcat: 12.59 ± 1.26 s⁻¹
  kcat/KM: 5.19(±1.31) × 10^2 M^−1s^−1

B1: SsoPox W263I: SEQ ID NO: 3 with substitution of tryptophan W in position 263 by isoleucine I (protein, listed as Sulfolobus solfataricus)
chain: MRIPLVGKDSIESKDIGFTLIHEHLRVFSEAVRQQWPHLYNEDEEFRNAVNEVKRAMQFGVKTIVDPTVMGLGRDIRFMEKVVKATGINLVAGTGIYIYIDLPFYFLNRSIDEIADLFIHDIKEGIQGTLNKAGFVKIAADEPGITKDVEKVIRAAAIANKETKVPIITHSNAHNNTGLEQQRILTEEGVDPGKILIGHLGDTDNIDYIKKIADKGSFIGLDRYGLDLFLPVDKRNETTLRLIKDGYSDKIMISHDYCCTIDIGTAKPEYKPKLAPRWSITLIFEDTIPFLKRNGVNEEVIATIFKENPKKFFS
3-oxo-C12 AHL
  relative lactonase activity in screening (3-oxo-C12 AHL hydrolysis): selected for a potential lactonase activity improvement
[19]
  melting temperature: 87.8±1.2 °C
lasB transcription
  half inhibition concentration ([C1/2]) of lasB transcription: around 0.5 μg/mL
[20]
  [C1/2] of inhibition of biofilm formation: approximately 170 μg/mL
P. aeruginosa PAO1
  mean time to death: 37 ± 13 h
  mortality rate: 20%
[21]
  acute inflammatory reactions in the respiratory parenchyma: no observable acute inflammatory reactions
  histological analysis of lungs: normal lung parenchyma
  macroscopic aspect of lungs removed after treatment: no macroscopic signs of injury
  spontaneous mortality: no spontaneous mortality was observed
  tolerance of tracheal instillation: well tolerated

B2: SsoPox: SsoPox enzyme tested for ecotoxicity; variant not specified (protein, UniProt Q97VT7 1-314, looked up)
Aryldialkylphosphatase: MRIPLVGKDSIESKDIGFTLIHEHLRVFSEAVRQQWPHLYNEDEEFRNAVNEVKRAMQFGVKTIVDPTVMGLGRDIRFMEKVVKATGINLVAGTGIYIYIDLPFYFLNRSIDEIADLFIHDIKEGIQGTLNKAGFVKIAADEPGITKDVEKVIRAAAIANKETKVPIITHSNAHNNTGLEQQRILTEEGVDPGKILIGHLGDTDNIDYIKKIADKGSFIGLDRYGLDLFLPVDKRNETTLRLIKDGYSDKIMISHDYCCTIDWGTAKPEYKPKLAPRWSITLIFEDTIPFLKRNGVNEEVIATIFKENPKKFFS
[22]
  effects on viability and development: no effects have been observed
